From patent US6534035B1, “Methods of inhibiting clot formation” (President and Fellows of Harvard College, priority 1998, dated 2003) come the findings set out here.

Peptide text beside a SMILES is read from it. * marks the point of attachment. Biotin = O=C1N[C@H]2[C@H](CS[C@H]2CCCCC(=O)*)N1

Format in all cases: biochemical
The target of assay [1] is T1, factor XIIIa-mediated crosslinking of α2AP to fibrin (Homo sapiens, UniProt P00488).
T1 construct: from tissue; host or cells: human plasma clotted with thrombin and calcium
T1 sequence (P00488 39-732 limits assumed): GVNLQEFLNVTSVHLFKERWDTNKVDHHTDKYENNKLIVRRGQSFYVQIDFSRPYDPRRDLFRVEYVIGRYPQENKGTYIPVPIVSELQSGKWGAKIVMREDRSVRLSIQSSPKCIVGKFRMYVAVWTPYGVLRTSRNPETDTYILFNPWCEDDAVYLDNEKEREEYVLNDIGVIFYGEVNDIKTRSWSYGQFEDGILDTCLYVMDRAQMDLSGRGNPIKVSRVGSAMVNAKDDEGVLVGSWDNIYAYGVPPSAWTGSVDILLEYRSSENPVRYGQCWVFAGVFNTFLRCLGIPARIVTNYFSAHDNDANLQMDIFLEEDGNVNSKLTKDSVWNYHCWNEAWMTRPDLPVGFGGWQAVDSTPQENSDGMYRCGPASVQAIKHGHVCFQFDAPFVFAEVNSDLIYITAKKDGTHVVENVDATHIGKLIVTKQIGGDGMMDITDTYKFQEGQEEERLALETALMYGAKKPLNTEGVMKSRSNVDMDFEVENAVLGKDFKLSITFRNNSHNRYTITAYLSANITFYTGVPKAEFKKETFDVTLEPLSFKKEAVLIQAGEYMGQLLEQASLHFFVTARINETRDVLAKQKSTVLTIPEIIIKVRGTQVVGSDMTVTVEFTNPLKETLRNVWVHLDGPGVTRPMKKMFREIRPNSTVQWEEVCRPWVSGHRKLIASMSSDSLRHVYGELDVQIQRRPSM
Nature of the assay: Inhibition of α2AP-fibrin crosslinking in plasma clots by α2AP polypeptide (immunoblot). On the procedure:
To inhibit the crosslinking of α2AP to fibrin, a polypeptide spanning the crosslinking site on the amino terminus of α2AP (SEQ ID NO:2) was synthesized. The purity of the polypeptide was analyzed by high performance liquid chromatography, and its composition was verified by amino acid analysis on a Waters Picotag system. The α2AP polypeptide was then solubilized in 20 mM Tris-HCl and the pH was adjusted to 7.0. Various concentrations of polypeptide (7.5 μl, 0-5 mM final) were mixed with 20 μl of plasma, 1.25 μl of calcium chloride (0.4 mM), and 1.25 μof thrombin (10.0 units/ml) and clotted for 90 minutes at 37° C. as described above. The clots were solubilized and analyzed by immunoblotting as described above.
On the technique in general: In western blotting, separated proteins are transferred to a membrane and probed.

Assay [2] addresses T2, FXIIIa (Homo sapiens, UniProt P00488).
T2 construct: purchased American Diagnostica
T2 sequence (P00488 39-732 limits assumed): T1 sequence (P00488 39-732 limits assumed)
Nature of the assay: Dose-dependent crosslinking of α2AP13-24 into fibrin clots. As to conditions: fibrin clots, compared to control clots. The method, then: Experiments were performed to determine how long FXIIIa in clots could crosslink various substrates such as human ^125I -α2AP, α2AP13-24 (SEQ ID NO:2), and 5-(biotinamido)pentylamine, into fibrin. In a typical experiment, clots were prepared (50 μl final volume) in duplicate by combining fibrinogen (2 mg/ml final), CaCl2 (2 mM final), buffer (Tris-buffered saline pH 7.4) and thrombin (1 U/ml) and incubating at 37° C. Synchronous with the addition of thrombin, or up to 240 minutes afterwards, the FXIIIa substrates 5-(biotinamido)pentylamine (0.5 mM final), ^125I -α2AP (70 μg/ml final), and α2AP13-24 (0 to 1 mM final) were mixed and added to the clot. […] Crosslinked ^125I-α2AP was detected and quantitated by phosphorimaging. Samples containing crosslinked α2AP13-24 and pentylamine substrates were electroblotted to PVDF membranes and detected by ^125I-streptavidin followed by phosphorimaging or by streptavidin-peroxidase followed by the developing agents 5-bromo-4-chloro-3-indolyl phosphate-nitro blue tetrazolium using methods known in the art. In experiments examining the effect of specific amino acid residues on the crosslinking of the α2AP13-24 peptide (SEQ ID NO:2) to fibrin, crosslinking was detected by immunoblotting with an anti-peptide antibody directed against this epitope followed by ^125I-protein A and phosphorimaging. […]

The target of assay [3] is T3, human plasma FXIII (Homo sapiens, UniProt P00488).
T3 construct: purchased American Diagnostica; host or cells: purified from human plasma
T3 sequence (P00488 39-732 limits assumed): T1 sequence (P00488 39-732 limits assumed)
Briefly: Crosslinking of α2AP13-24 into fibrin by plasma FXIII in FXIII-free fibrinogen. The method, then: Fibrin clots (50 μl) were prepared in duplicate by mixing FXIII-free fibrinogen (2 mg/ml final), α2AP13-24 (SEQ ID NO:2; 0.5 mM final), CaCl2 (2 mM final), human plasma FXIII (100 nM/L final) and guinea pig tissue transglutaminase (100 nM/L final) and thrombin (1 U/ml final) and incubating at 37° C. for 2 hours. The crosslinking of α2AP13-24 was detected as described above.

Turning to `CC(C)C[C@H](NC(=O)[C@H](CC(C)C)NC(=O)[C@@H](NC(=O)[C@H](CC(C)C)NC(=O)[C@@H]1CCCN1C(=O)[C@H](CO)NC(=O)[C@@H](NC(=O)[C@H](CCC(N)=O)NC(=O)[C@H](CCC(=O)O)NC(=O)[C@H](CCC(N)=O)NC(=O)[C@@H](N)CC(N)=O)C(C)C)[C@@H](C)O)C(=O)N[C@@H](CCCCNC(=O)CCCC[C@@H]1SC[C@@H]2NC(=O)N[C@@H]21)C(=O)O` [α2AP13-24, NQEQVSPLTLLK] (H-NQEQVSPLTLLK(Biotin)-OH), the α2AP-fibrin crosslinking result in assay [1] (peptide concentrations of 1.5 mM and 3.0 mM) was “little α2AP crosslinking was visible”. Moreover, the “formation of fibrin γ-γ crosslinks” value in assay [1] (plasma clots formed with α2AP polypeptide) is given as “no apparent effect”. In addition, the “peptide concentration giving progressively less α2AP-fibrin crosslinking” value in assay [1] (plasma clots, 90 minutes at 37° C.) is given as no less than 0.38 mM. In assay [2], the “lowest concentration at which crosslinking is seen” value was 1.3 µM. Besides, the “crosslinking of peptide to fibrin” value in assay [3] (equivalent amount of purified exogenous FXIIIa added to FXIIIa-deficient fibrinogen) is given as “significantly more crosslinking”; in assay [3] (purified FXIIIa-deficient fibrinogen, no enzyme added) it was “little, if any, significant crosslinking”.
